The values that follow come from US7199136B2, “1,4-dihydro-1,4-diphenylpyridine derivatives” (Bayer HealthCare AG, priority 2001, dated 2007).

The test system of the first experiment is human polymorphonuclear cells (PMNs). Description: In vitro PMN elastolysis assay (tritiated elastin). It is filed as cell-based. Particulars: at 1.2 μM; n=3 different donors at 3.6×10^5 cells per well; 4 hours at 37° C. How it is done:
II. In Vitro PMN Elastolysis Assay
This assay is used to determine the elastolytic potential of human polymorphonuclear cells (PMNs) and assess the proportion of degradation due to neutrophil elastase [cf. Z. W. She et al., Am. J. Respir. Cell. Mol. Biol. 9, 386–392 (1993)].
Tritiated elastin, in suspension, is coated on to a 96 well plate at 10 μg per well. Test and reference [ZD-0892 (J. Med. Chem. 40, 1876–1885, 3173–3181 (1997), WO 95/21855) and α1 protease inhibitor (α1PI)] compounds are added to the wells at the appropriate concentrations. Human PMNs are separated from peripheral venous blood of healthy donors and resuspended in culture media. […] Porcine pancreatic elastase (1.3 μM is used as a positive control for the assay, and α1PI (1.2 μM) is used as the positive inhibitor of neutrophil elastase. The cellular control is PMNs without compound at each appropriate cell density. The cells plus compounds are incubated in a humidified incubator at 37° C. for 4 hours. The plates are centrifuged to allow the harvest of cell supernatant only. The supernatant is transferred in 75 μl volumes to corresponding wells of a 96 well Lumaplate™ (solid scintillant containing plates). The plates are dried until no liquid is visible in the wells and read in a beta counter for 3 minutes per well. […]
On to “α1PI: α1 protease inhibitor, used as the positive inhibitor of neutrophil elastase”, for which the “inhibition of 3H-elastin elastolysis (mean±s.e.m.)” value came to 83.46±3.97%.

The experiment is the same for the next values; noted with them: n=2 different donors at 3.6×10^5 cells per well; read-out: IC50 (mean±s.e.m.) of elastolysis inhibition.
As to `COc1ccc(C(=O)N[C@H](C(=O)N2CCC[C@H]2C(=O)N[C@H](C(=O)C(F)(F)F)C(C)C)C(C)C)cc1` [ZD-0892, reference compound], the IC50 (in general, the midpoint of a concentration-inhibition curve) turned out to be 0.0455 ± 0.00775 µM.

In another experiment the target is T1, human neutrophil elastase (HNE) (Homo sapiens, UniProt P08246).
T1 construct: purchased SERVA Electrophoresis GmbH, Heidelberg, Germany #20927.01
T1 sequence (P08246 30-267): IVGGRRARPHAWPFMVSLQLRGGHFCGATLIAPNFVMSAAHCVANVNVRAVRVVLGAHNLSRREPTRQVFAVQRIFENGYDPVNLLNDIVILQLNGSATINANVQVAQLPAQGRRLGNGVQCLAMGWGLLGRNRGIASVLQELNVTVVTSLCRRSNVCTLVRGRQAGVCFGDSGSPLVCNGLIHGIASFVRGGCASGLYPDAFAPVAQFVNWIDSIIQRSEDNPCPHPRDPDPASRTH
Description: In vitro inhibition of HNE using a fluorogenic peptide substrate (MeOSuc-Ala-Ala-Pro-Val-AMC), 384 MTP format. It is filed as biochemical. To be noted: 37° C. The protocol: I. In Vitro Assays of Human Neutrophil Elastase (HNE)
The test solution is prepared by mixing 10 μl of test compound dilution, 20 μl of HNE enzyme dilution (final concentration 8–0.4 μU/ml, routinely 2.1 μU/ml) and 20 μl of substrate dilution (final concentration 1 mM–1 μM, routinely 20 μM), respectively. The solution is incubated for 0–2 hrs at 37° C. (routinely one hour). The fluorescence of the liberated AMC due to the enzymatic reaction is measured at 37° C. (TECAN spectra fluor plus plate reader). […] IC50 values are determined by RFU-versus-[I] plots. Km and Km(app.) values are determined by Lineweaver-Burk plots and converted to Ki values by Dixon plots.
The molecule `CCOC(=O)C1=C(N)N(c2cc(OC)cc(C(F)(F)F)c2)C(C)=C(C(C)=O)C1c1ccc(C#N)cc1` (stereo not shown) [Example 18, Ethyl 5-acetyl-2-amino-4-(4-cyanophenyl)-1-[3-methoxy-5-(trifluoromethyl)phenyl]-6-methyl-1,4-dihydro-3-pyridinecarboxylate] had an IC50 of 0.03 µM.

Molecule `CC(=O)C1=C(C)N(c2cccc(C(F)(F)F)c2)C(N)=C(C#N)C1c1ccc(C#N)cc1` (stereo not shown) [Example 15, 5-Acetyl-2-amino-4-(4-cyanophenyl)-6-methyl-1-[3-(trifluoromethyl)phenyl]-1,4-dihydro-3-pyridinecarbonitrile] gave an IC50 of 0.12 µM.

On to `CC(=O)C1=C(C)N(c2cccc(C(F)(F)F)c2)C(N)=C(C(N)=O)C1c1ccc(C#N)cc1` (stereo not shown) [Example 13, 5-Acetyl-2-amino-4-(4-cyanophenyl)-6-methyl-1-[3-(trifluoromethyl)phenyl]-1,4-dihydro-3-pyridinecarboxamide], for which the midpoint of inhibition, the IC50, lay at 0.03 µM.

`CC(=O)C1=C(C)N(c2cccc(C(F)(F)F)c2)C(=N)C(C(=O)N(C)C)C1c1ccc(C#N)cc1` (stereo not shown) [Example 14, 5-Acetyl-4-(4-cyanophenyl)-2-imino-N,N,6-trimethyl-1-[3-(trifluoromethyl)phenyl]-1,2,3,4-tetrahydro-3-pyridinecarboxamide] showed an IC50 of 0.02 µM.

`CCOC(=O)C1=C(C)N(c2cccc(C(F)(F)F)c2)C(C)=C(C(C)=O)C1c1ccc(C#N)cc1` (racemic) [Example 10, (±)-Ethyl 5-acetyl-4-(4-cyanophenyl)-2,6-dimethyl-1-[3-(trifluoromethyl)phenyl]-1,4-dihydro-3-pyridinecarboxylate] returned an IC50 of 0.23 µM.

In turn, `CCOC(=O)C1=CN(c2cccc(C(F)(F)F)c2)C(C)=C(C(C)=O)C1c1ccc(C#N)cc1` (racemic) [Example 8, (±)-Ethyl 5-acetyl-4-(4-cyanophenyl)-6-methyl-1-[3-(trifluoromethyl)phenyl]-1,4-dihydro-3-pyridinecarboxylate] showed an IC50 of 0.33 µM.

Molecule `CCOC(=O)C1=C(N)N(c2cccc(CN(CC)CC)c2)C(C)=C(C(C)=O)C1c1ccc(C#N)cc1` (stereo not shown) [Example 17, Ethyl 5-acetyl-2-amino-4-(4-cyanophenyl)-1-{3-[(diethylamino)methyl]phenyl}-6-methyl-1,4-dihydro-3-pyridinecarboxylate] had an IC50 of 9 µM.

The molecule `CCOC(=O)C1=C(N)N(c2cccc(C)c2)C(C)=C(C(C)=O)C1c1ccc(C#N)cc1` (stereo not shown) [Example 12, Ethyl 5-acetyl-2-amino-4-(4-cyanophenyl)-6-methyl-1-[3-methylphenyl]-1,4-di-hydro-3-pyridinecarboxylate] registered an IC50 of 0.18 µM.
